Measurements: PMC9291687
Where two headings read alike, the source gives them in different places.

Tests used:
[1] = system: breast cancer (MCF-7); assay: MTT antiproliferative assay, MCF-7; conditions: for inhibition at 100 µM / IC50: Homo sapiens; for inhibition at 100 µM: MCF7, read-out: Growth inhibition (%) MCF-7; for Growth inhibition (%) MCF-7: 100 μM, MTT; for IC50: MCF7, read-out: IC50 MCF-7
Experimental: (§1) Preliminary screening against the cancer cell lines was performed, using doxorubicin as a reference drug at doses of 100 μM.
(§2) In vitro cytotoxicity was carried out using MTT assay protocol[63] as described in Supplementary data.
(§3) proliferative activity was assessed quantitatively as follows;
(§4) Human cancer cell lines were dropped in 96-well plates at a density of 3-8 × 10^3 cells/well.
(§5) growth medium was exchanged with 0.1 ml of fresh medium containing graded concentrations of the test compounds to be or equal DMSO and incubated for two days. Then 10 μl MTT solution (0.5 mg/ml) was added to each well, and the cells were incubated for additional 4 h. The crystals of MTT-formazan were dissolved in 100 μl of DMSO; the absorbance of each well was measured at 490 nm using an automatic ELISA reader system (TECAN, CHE). The IC50 values were calculated using the nonlinear regression fitting models (Graph Pad, Prism Version 5). The data represented the mean of three independent experiments in triplicate and were expressed as means
(§6) The results were expressed as growth inhibitory concentration (IC50) values and

[2] = system: prostate cancer (PC-3); assay: MTT antiproliferative assay, PC-3; conditions: for inhibition at 100 µM / IC50: Homo sapiens; for inhibition at 100 µM: read-out: Growth inhibition (%) PC-3; for Growth inhibition (%) PC-3: 100 μM, MTT; for IC50: read-out: IC50 PC-3
Experimental: as §1, §2, §3, §4, §5, §6

[3] = system: lung cancer (A-549); assay: MTT antiproliferative assay, A-549; conditions: for inhibition at 100 µM / IC50: Homo sapiens; for inhibition at 100 µM: A549, read-out: Growth inhibition (%) A549; for Growth inhibition (%) A549: 100 μM, MTT
Experimental: as §1, §2, §3, §4, §5, §6

[4] = system: colon cancer (HCT-116); assay: MTT antiproliferative assay, HCT-116; conditions: for inhibition at 100 µM / IC50: Homo sapiens; for inhibition at 100 µM: HCT-116, read-out: Growth inhibition (%) HCT-116; for IC50: HCT-116, read-out: IC50 HCT-116; for Cytotoxic activity against HCT-116 / Growth inhibition (%) HCT-116: MTT; for Growth inhibition (%) HCT-116: 100 μM
Experimental: as §1, §2, §3, §4, §5, §6

[5] = molecular target: EGFR^WT (Homo sapiens, UniProt P00533); assay: EGFRWT kinase inhibitory assay (HTRF)
EGFR^WT, sequence (P00533 25-1210): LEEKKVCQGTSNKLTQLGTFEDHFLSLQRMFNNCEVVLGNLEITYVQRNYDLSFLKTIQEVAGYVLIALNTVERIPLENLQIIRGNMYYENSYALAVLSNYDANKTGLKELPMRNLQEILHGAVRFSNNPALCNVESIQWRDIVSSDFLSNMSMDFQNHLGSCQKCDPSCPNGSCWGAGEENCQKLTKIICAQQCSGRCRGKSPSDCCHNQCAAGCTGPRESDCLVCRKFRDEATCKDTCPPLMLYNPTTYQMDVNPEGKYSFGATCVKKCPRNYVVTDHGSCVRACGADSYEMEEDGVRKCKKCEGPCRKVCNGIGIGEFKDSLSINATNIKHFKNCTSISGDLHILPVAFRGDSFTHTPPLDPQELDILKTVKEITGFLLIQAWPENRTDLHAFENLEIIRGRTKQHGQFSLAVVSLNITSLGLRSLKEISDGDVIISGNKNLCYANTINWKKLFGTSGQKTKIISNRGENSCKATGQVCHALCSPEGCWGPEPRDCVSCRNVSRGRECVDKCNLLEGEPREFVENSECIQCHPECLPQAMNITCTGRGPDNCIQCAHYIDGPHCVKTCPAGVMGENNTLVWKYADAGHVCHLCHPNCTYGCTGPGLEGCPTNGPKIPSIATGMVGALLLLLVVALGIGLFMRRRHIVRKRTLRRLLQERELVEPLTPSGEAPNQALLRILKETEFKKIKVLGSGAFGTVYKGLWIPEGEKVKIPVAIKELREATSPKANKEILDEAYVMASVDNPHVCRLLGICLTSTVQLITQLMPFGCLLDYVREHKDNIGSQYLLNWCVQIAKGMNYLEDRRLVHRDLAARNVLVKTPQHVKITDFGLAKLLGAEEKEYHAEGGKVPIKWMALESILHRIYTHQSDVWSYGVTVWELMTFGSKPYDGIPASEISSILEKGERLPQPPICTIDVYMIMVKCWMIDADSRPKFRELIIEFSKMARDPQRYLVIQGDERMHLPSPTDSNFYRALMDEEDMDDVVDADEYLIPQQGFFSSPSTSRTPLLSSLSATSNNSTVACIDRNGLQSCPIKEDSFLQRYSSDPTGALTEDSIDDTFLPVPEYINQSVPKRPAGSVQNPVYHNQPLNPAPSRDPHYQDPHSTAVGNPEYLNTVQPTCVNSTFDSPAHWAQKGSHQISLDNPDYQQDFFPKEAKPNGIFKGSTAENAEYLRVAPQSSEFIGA
Experimental: (§7) In vitro EGFR inhibitory activity was assessed using Homogeneous time-resolved fluorescence (HTRF) assay[64] as described in Supplementary data.
(§8) The IC50 values were calculated using the nonlinear regression fitting models (Graph Pad, Prism Version 5).
(§9) EGFRWT and EGFRT790M kinase inhibitory assay
(§10) Homogeneous time resolved fluorescence (HTRF) assay was applied in this test.
(§11) EGFRWT, EGFRT790M (Sigma). firstly, the EGFRWT and/or EGFRT790M and their substrates were incubated with the tested compounds in enzymatic buffer for 5 min.
(§12) into the reaction mixture to allow starting the enzymatic reaction. The assay was conducted for 30 min at room temperature. The reaction was stopped by addition of detection reagents which contain
(§13) GraphPad Prism 5.0. Three independent experiments were performed for each concentration.

[6] = molecular target: EGFR^T790M (Homo sapiens, UniProt P00533, T790M); assay: EGFRT790M kinase inhibitory assay (HTRF)
EGFR^T790M, sequence (P00533 25-1210 T790M): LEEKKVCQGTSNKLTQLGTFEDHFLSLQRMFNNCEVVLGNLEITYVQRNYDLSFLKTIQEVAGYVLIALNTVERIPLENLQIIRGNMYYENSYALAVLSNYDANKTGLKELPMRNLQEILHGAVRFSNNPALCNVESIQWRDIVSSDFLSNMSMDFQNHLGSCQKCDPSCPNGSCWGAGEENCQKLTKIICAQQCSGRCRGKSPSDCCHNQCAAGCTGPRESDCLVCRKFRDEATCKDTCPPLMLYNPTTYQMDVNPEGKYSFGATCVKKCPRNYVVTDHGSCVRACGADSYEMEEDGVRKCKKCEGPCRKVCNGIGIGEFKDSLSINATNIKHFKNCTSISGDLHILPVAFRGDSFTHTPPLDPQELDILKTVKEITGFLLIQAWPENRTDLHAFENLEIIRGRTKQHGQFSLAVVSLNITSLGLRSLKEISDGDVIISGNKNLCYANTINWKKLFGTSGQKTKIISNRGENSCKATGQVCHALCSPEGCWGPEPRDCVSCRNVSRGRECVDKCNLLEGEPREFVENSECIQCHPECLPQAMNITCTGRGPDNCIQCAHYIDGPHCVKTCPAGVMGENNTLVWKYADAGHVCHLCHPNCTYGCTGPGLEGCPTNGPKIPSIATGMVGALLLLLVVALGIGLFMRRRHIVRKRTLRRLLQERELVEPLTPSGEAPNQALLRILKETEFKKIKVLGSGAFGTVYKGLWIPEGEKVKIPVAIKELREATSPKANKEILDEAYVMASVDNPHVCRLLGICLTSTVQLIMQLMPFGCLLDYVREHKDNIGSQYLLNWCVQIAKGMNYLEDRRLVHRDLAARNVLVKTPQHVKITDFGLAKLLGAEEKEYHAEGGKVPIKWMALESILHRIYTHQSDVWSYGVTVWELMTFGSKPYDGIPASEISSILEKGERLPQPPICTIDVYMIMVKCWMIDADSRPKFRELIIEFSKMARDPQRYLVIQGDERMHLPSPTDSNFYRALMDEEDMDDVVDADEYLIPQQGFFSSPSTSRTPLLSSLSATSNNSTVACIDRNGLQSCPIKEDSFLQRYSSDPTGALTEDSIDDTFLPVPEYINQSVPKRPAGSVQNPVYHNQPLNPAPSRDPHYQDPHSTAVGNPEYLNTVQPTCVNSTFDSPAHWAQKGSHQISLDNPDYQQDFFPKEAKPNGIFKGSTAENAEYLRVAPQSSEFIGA
Experimental: as §7, §8, §9, §10, §11, §12, §13

[7] = system: caspase-3 in PC-3 cells; assay: Caspase-3 determination (ELISA); type: cell-based, human; conditions: 24 h treatment, 8a at 3.04 µM, control 84.24, mean ± SEM
[8] = A549, read-out: IC50 A-549, MTT, mean of at least three experiments

Compound | melting point [°C] | inhibition at 100 µM [1] [%] | inhibition at 100 µM [2] [%] | inhibition at 100 µM [3] [%] | inhibition at 100 µM [4] [%] | also measured
COc1cc(-c2cc(-c3ccc(Cl)cc3)nc3nc4[nH]c5ccccc5c(=O)n4c(=O)c23)cc(OC)c1OC [Compound 8c, 2–(4-Chlorophenyl)-4–(3,4,5-trimethoxyphenyl)-5H-pyrido [2',3':4,5] pyrimido[2,1-b]quinazoline-5,7(12H)-dione] | < 300 | 21 | 17 | 8 | 9 | 
O=c1[nH]c(=S)[nH]c2nc(-c3ccc(Cl)cc3)cc(-c3ccc(Cl)cc3Cl)c12 [Compound 7a, 7–(4-Chlorophenyl)-5–(2,4-dichlorophenyl)-2-thioxo-2,3-dihydropyrido [2,3-d]pyrimidin-4(1H)-one] | 318 to 320 | 34 | 12 | 14 | 18 | 
COc1cccc2c1C(=O)c1c(O)c3c(c(O)c1C2=O)C[C@@](O)(C(=O)CO)C[C@@H]3O[C@H]1C[C@H](N)[C@H](O)[C@H](C)O1 [Doxorubicin, reference compound] |  | 100 | 100 | 100 | 100 | 
3-Amino-6–(4-methoxyphenyl)-8-(p-tolyl)-2,3-dihydropyrido[2,3-d][1, 2, 4] triazolo[4,3-a]pyrimidin-5(1H)-one [Compound 11c] |  |  |  |  |  | Growth inhibition (%) MCF-7 [1]: 23%; Growth inhibition (%) PC-3 [2]: 28%; Growth inhibition (%) A549 [3]: 26%; Growth inhibition (%) HCT-116 [4]: 3%
3-Amino-8–(4-chlorophenyl)-6–(2,4-dichlorophenyl)-10,10a-dihydropyrido [2,3-d][1, 2, 4]triazolo[4,3-a]pyrimidin-5(1H)-one [Compound 11a] |  |  |  |  |  | Growth inhibition (%) MCF-7 [1]: 7%; Growth inhibition (%) PC-3 [2]: 30%; Growth inhibition (%) A549 [3]: 2%; Growth inhibition (%) HCT-116 [4]: 9%
COc1cc(-c2cc(-c3ccc(C)cc3)nc3nc4[nH]c5ccccc5c(=O)n4c(=O)c23)cc(OC)c1OC [Compound 8d, 2-(p-Tolyl)-4–(3,4,5-trimethoxyphenyl)-5H-pyrido[2',3':4,5] pyrimido[2,1-b]quinazoline-5,7(12H)-dione] | > 300 | 15 | 95 | 97 | 78 | IC50 [2]: 7.12 ± 2 µM; IC50 [5]: 0.419 ± 0.029 µM; IC50 [3, 8]: 7.23 ± 2.1 µM; IC50 [4]: 70.2 ± 2 µM; Cytotoxic activity against HCT-116 [4]: mild cytotoxic activity; IC50 [6]: 0.29 ± 0.023 µM
3-Amino-8–(4-chlorophenyl)-6–(3,4,5-trimethoxyphenyl) -2,3dihydropyrido[2,3-d][1, 2, 4]triazolo[4,3-a] pyrimidin-5(1H)-one [Compound 11d] |  |  |  |  |  | Growth inhibition (%) MCF-7 [1]: 37%; Growth inhibition (%) PC-3 [2]: 20%; Growth inhibition (%) A549 [3]: 5%; Growth inhibition (%) HCT-116 [4]: 3%
3-Amino-8–(4-chlorophenyl)-6-(p-tolyl)-2,3-dihydropyrido[2,3-d][1, 2, 4] triazolo[4,3-a]pyrimidin-5(1H)-one [Compound 11b] |  |  |  |  |  | Growth inhibition (%) MCF-7 [1]: 29%; Growth inhibition (%) PC-3 [2]: 43%; Growth inhibition (%) A549 [3]: 28%; Growth inhibition (%) HCT-116 [4]: 15%
CN[C@@H]1C[C@H]2O[C@@](C)([C@@H]1OC)n1c3ccccc3c3c4c(c5c6ccccc6n2c5c31)C(=O)NC4 [Staurosporine, reference compound] |  |  |  |  |  | Caspase-3 level [7]: 413.1 ± 11.66 pg/mL; Caspase-3 level ([7]; listed as staurosporine): 413.1 pg/mL
COc1ccc(-c2cc(-c3ccc(C)cc3)nc3nc4[nH]c5ccccc5c(=O)n4c(=O)c23)cc1 [Compound 8b, 4–(4-Methoxyphenyl)-2-(p-tolyl)-5H-pyrido[2',3':4,5] pyrimido[2,1-b] quinazoline-5,7(12H)-dione] | > 300 | 9 | 96 | 94 | 67 | IC50 [2]: 18 ± 2.3 µM; IC50 [3, 8]: 16 µM; IC50 [4]: 26 ± 1.3 µM; Cytotoxic activity against HCT-116 [4]: mild cytotoxic activity; IC50 [6]: 0.29 µM
C#Cc1cccc(Nc2ncnc3cc(OCCOC)c(OCCOC)cc23)c1 [Erlotinib, reference compound] |  |  |  |  |  | IC50 [1]: 4.21 ± 0.62 µM; IC50 [2]: 11.1 ± 1.07 µM; IC50 ([3]; A549, read-out: IC50 A-549): 6.53 ± 0.82 µM
3-Amino-8-(p-Tolyl)-6–(3,4,5-trimethoxyphenyl)-2,3-dihydropyrido[2,3-d][1, 2, 4]triazolo[4,3-a]pyrimidin-5(1H)-one [Compound 11e] |  |  |  |  |  | Growth inhibition (%) MCF-7 [1]: 23%; Growth inhibition (%) PC-3 [2]: 22%; Growth inhibition (%) A549 [3]: 30%; Growth inhibition (%) HCT-116 [4]: 6%

Now from value to compound, other results behind:

melting point [°C] | Compound | inhibition at 100 µM [1] [%] | inhibition at 100 µM [2] [%] | inhibition at 100 µM [3] [%] | inhibition at 100 µM [4] [%] | also measured
325 to 327 | COc1ccc(-c2cc(-c3ccc(C)cc3)nc3nc4[nH]nc(-c5ccccc5)n4c(=O)c23)cc1 [Compound 12b, 6-(4-Methoxyphenyl)-3-phenyl-8-(p-tolyl)pyrido[2,3-d][1,2, 4]triazolo[4,3-a]pyrimidin-5(1H)-one] | 54 | 36 | 33 | 56 | IC50 [4]: 86.3 ± 2.2 µM; Cytotoxic activity against HCT-116 [4]: mild cytotoxic activity
322 to 324 | COc1cc(-c2cc(-c3ccc(C)cc3)nc3nc4[nH]nc(-c5ccccc5)n4c(=O)c23)cc(OC)c1OC [Compound 12d, 3-Phenyl-8-(p-tolyl)-6–(3,4,5-trimethoxyphenyl)pyrido[2,3-d][1,2, 4]triazolo [4,3-a]pyrimidin-5(1H)-one] | 15 | 14 | 4 | 5 | 
391 to 393 | COc1cc(-c2cc(-c3ccc(C)cc3)nc3nc4[nH][nH]c(=O)n4c(=O)c23)cc(OC)c1OC [Compound 10d, 8-(p-Tolyl)-6–(3,4,5-trimethoxyphenyl)-1,2-dihydropyrido[2,3-d][1,2, 4]triazolo [4,3-a]pyrimidine-3,5-dione] | 5 | 8 | 2 | 5 | 
366 to 368 | COc1ccc(-c2cc(-c3ccc(C)cc3)nc3nc4[nH][nH]c(=O)n4c(=O)c23)cc1 [Compound 10b, 6-(4-Methoxyphenyl)-8-(p-tolyl)-1,2-dihydropyrido[2,3-d][1,2, 4]triazolo[4,3-a]pyrimidine-3,5-dione] | 4 | 15 | 7 | 14 | 
347 to 349 | Cc1ccc(-c2cc(-c3ccc(Cl)cc3)nc3nc4[nH][nH]c(=O)n4c(=O)c23)cc1 [Compound 10a, 8-(4-Chlorophenyl)-6-(p-tolyl)-1,2-dihydropyrido[2,3-d][1,2, 4]triazolo[4,3-a]pyrimidine-3,5-dione] | 41 | 29 | 17 | 21 | 
367 to 369 | COc1cc(-c2cc(-c3ccc(Cl)cc3)nc3nc4[nH][nH]c(=O)n4c(=O)c23)cc(OC)c1OC [Compound 10c, 8-(4-Chlorophenyl)-6–(3,4,5-trimethoxyphenyl)-1,2-dihydropyrido[2,3-d][1,2, 4]triazolo[4,3-a]pyrimidine-3,5-dione] | 8 | 52 | 9 | 23 | 
265 to 267 | NNc1nc2nc(-c3ccc(Cl)cc3)cc(-c3ccc(Cl)cc3Cl)c2c(=O)[nH]1 [Compound 9a, 7-(4-Chlorophenyl)-5–(2,4-dichlorophenyl)-2-hydrazineylpyrido[2,3-d]pyrimidin-4(3H)-one] | 68 | 90 | 42 | 89 | IC50 [1]: 42 ± 1.2 µM; IC50 [2]: 9.26 ± 2.4 µM; IC50 [5]: 0.594 ± 0.042 µM; IC50 [6]: 0.571 ± 0.046 µM
313 to 315 | COc1cc(-c2cc(-c3ccc(Cl)cc3)nc3nc4[nH]nc(-c5ccccc5)n4c(=O)c23)cc(OC)c1OC [Compound 12c, 8-(4-Chlorophenyl)-3-phenyl-6–(3,4,5-trimethoxyphenyl)pyrido[2,3-d][1,2, 4]triazolo[4,3-a]pyrimidin-5(1H)-one] | 55 | 30 | 22 | 33 | 
315 to 317 | Cc1ccc(-c2cc(-c3ccc(Cl)cc3)nc3nc4[nH]nc(-c5ccccc5)n4c(=O)c23)cc1 [Compound 12a, 8–(4-Chlorophenyl)-3-phenyl-6-(p-tolyl)pyrido[2,3-d][1,2, 4]triazolo[4,3-a]pyrimidin-5(1H)-one] | 45 | 28 | 41 | 35 | 
